Assay results taken from publication PMC9442423, “Extracellular loop 2 of G protein–coupled olfactory receptors is critical for odorant recognition” (The Journal of Biological Chemistry, 2022).

target: T1, mOR256-3 (Mus musculus, UniProt Q0VEF0); assay: CRE-luciferase cAMP reporter in Hana3A cells, inhibition of odorant response; format: cell-based; conditions: antagonist against R-carvone, coumarin and geraniol
T1 construct: gene Olfr124; full-length receptor from Dr H. Matsunami, expressed in Hana3A cells; surface detected by antirhodopsin antibody
T1 sequence (Q0VEF0 1-315): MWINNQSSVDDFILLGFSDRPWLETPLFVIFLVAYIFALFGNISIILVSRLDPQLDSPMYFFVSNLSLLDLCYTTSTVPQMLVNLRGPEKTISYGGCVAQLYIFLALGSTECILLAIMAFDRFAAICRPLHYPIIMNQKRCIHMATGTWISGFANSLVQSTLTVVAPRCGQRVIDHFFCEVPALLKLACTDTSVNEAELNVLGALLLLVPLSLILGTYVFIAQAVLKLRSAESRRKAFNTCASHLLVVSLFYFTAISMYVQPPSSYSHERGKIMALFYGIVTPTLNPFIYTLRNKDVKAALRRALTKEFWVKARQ

SMILES	CRE-luciferase cAMP reporter in Hana3A cells, inhibition of odorant response
O=Cc1ccccc1 [benzaldehyde]	Benzaldehyde antagonized R-carvone, coumarin, and geraniol

target: T1, mOR256-3; assay: CRE-luciferase cAMP reporter in Hana3A cells, dose-response fit; format: cell-based; conditions: agonist; 4 h, 37 °C, 5% CO2

SMILES	EC50
CCCCCCCCO [1-octanol]	Ten odorants activated mOR256-3 in a dose-dependent manner
CCCCCC(C)=O [2-heptanone]	Ten odorants activated mOR256-3 in a dose-dependent manner
C=C(C)[C@@H]1CC=C(C)C(=O)C1 [R-carvone]	Ten odorants activated mOR256-3 in a dose-dependent manner
C=CCOC(=O)Cc1ccccc1 [allyl phenylacetate]	Ten odorants activated mOR256-3 in a dose-dependent manner
CC(=O)OCc1ccccc1 [benzyl acetate]	Ten odorants activated mOR256-3 in a dose-dependent manner
O=c1ccc2ccccc2o1 [coumarin]	Ten odorants activated mOR256-3 in a dose-dependent manner
CC(C)=CCC/C(C)=C/CO [geraniol]	Ten odorants activated mOR256-3 in a dose-dependent manner
CCCCCCCC=O [octanal]	Ten odorants activated mOR256-3 in a dose-dependent manner
CCCCCCCC(=O)O [octanoic acid]	Ten odorants activated mOR256-3 in a dose-dependent manner

same assay, conditions: agonist; 4 h, 37 °C, 5% CO2; E/Z composition of citral not stated

SMILES	EC50
CC(C)=CCCC(C)=CC=O [citral]	Ten odorants activated mOR256-3 in a dose-dependent manner
